Legend:
Experiment in all cases: biochemical
Set-up in all cases: KINOMEscan active-site competition binding panel (468 kinase assays), per cent of control at 1000 nM
Conditions in all cases: KINOMEscan per cent of control (binding competition); read-out: Percent Control
[1] = molecular target: FLT3(R834Q) (Homo sapiens, UniProt P36888, R834Q)
Source text: (§1) Figure S7 / Percent Control

[2] = molecular target: ULK3 (Homo sapiens, UniProt Q6PHR2)
Source text: as §1

[3] = molecular target: CLK4 (Homo sapiens, UniProt Q9HAZ1)
Source text: as §1

[4] = molecular target: GRK4 (Homo sapiens, UniProt P32298)
Source text: as §1

[5] = molecular target: NEK2 (Homo sapiens, UniProt P51955)
Source text: as §1

[6] = molecular target: BMPR1A (Homo sapiens, UniProt P36894)
Source text: as §1

[7] = molecular target: ZAP70 (Homo sapiens, UniProt P43403)
Source text: as §1

[8] = molecular target: LATS1 (Homo sapiens, UniProt O95835)
Source text: as §1

[9] = molecular target: ERBB2 (Homo sapiens, UniProt P04626)
Source text: as §1

[10] = molecular target: RAF1 (Homo sapiens, UniProt P04049)
Source text: as §1

[11] = molecular target: T1, ABL1(Q252H)-phosphorylated (Homo sapiens, UniProt P00519, Q252H)
T1 construct: phosphorylated
Source text: as §1

[12] = molecular target: T2, CAMK1B (Homo sapiens, UniProt Q6P2M8)
T2 construct: gene PNCK
Source text: as §1

[13] = molecular target: SRPK1 (Homo sapiens, UniProt Q96SB4)
Source text: as §1

[14] = molecular target: TEC (Homo sapiens, UniProt P42680)
Source text: as §1

[15] = molecular target: STK35 (Homo sapiens, UniProt Q8TDR2)
Source text: as §1

[16] = molecular target: T3, PAK7 (Homo sapiens, UniProt Q9P286)
T3 construct: gene PAK5
Source text: as §1

[17] = molecular target: CSK (Homo sapiens, UniProt P41240)
Source text: as §1

[18] = molecular target: T4, VPS34 (Homo sapiens, UniProt Q8NEB9)
T4 construct: gene PIK3C3
Source text: as §1

[19] = molecular target: MAP4K5 (Homo sapiens, UniProt Q9Y4K4)
Source text: as §1

[20] = molecular target: DYRK2 (Homo sapiens, UniProt Q92630)
Source text: as §1

[21] = molecular target: TIE1 (Homo sapiens, UniProt P35590)
Source text: as §1

[22] = molecular target: FLT3(ITD,F691L) (Homo sapiens, UniProt P36888, F691L/ITD)
Source text: as §1

[23] = molecular target: MYLK2 (Homo sapiens, UniProt Q9H1R3)
Source text: as §1

[24] = molecular target: PAK3 (Homo sapiens, UniProt O75914)
Source text: as §1

[25] = molecular target: EGFR(L747-E749del, A750P) (Homo sapiens, UniProt P00533, A750P/DEL747-749)
Source text: as §1

Sequence of DYRK2 (Q92630 whole entry): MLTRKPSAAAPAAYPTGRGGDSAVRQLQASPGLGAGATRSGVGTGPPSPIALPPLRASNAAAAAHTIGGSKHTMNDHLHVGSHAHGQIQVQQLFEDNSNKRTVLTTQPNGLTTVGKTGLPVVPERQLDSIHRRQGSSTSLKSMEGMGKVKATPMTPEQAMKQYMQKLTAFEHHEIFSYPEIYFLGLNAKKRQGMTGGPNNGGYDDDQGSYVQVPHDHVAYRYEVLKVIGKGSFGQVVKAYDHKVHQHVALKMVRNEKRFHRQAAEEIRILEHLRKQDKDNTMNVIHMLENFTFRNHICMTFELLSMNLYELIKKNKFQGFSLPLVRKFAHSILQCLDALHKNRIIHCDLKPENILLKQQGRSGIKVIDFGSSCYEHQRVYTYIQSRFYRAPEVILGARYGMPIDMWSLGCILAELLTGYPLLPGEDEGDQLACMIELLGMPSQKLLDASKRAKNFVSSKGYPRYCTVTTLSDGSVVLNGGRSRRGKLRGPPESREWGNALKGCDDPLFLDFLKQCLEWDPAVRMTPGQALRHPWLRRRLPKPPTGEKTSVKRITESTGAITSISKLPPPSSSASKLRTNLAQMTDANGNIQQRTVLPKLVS
Sequence of SRPK1 (Q96SB4 whole entry): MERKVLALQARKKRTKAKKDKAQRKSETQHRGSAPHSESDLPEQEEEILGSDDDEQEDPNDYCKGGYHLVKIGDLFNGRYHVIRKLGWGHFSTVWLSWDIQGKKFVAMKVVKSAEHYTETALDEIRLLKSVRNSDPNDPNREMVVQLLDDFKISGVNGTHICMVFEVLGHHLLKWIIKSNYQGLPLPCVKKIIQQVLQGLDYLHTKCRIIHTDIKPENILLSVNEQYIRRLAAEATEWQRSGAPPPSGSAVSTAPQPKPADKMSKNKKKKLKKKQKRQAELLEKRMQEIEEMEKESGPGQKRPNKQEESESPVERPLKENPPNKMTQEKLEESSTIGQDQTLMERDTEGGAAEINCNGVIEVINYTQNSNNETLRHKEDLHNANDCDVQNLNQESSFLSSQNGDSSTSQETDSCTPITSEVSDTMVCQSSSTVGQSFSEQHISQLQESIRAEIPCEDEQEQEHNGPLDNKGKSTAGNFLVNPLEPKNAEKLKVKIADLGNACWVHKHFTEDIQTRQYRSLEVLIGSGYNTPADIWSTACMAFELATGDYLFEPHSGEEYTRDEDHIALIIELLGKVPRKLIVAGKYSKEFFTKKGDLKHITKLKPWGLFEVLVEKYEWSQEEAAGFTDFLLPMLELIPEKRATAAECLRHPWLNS
Sequence of PAK3 (O75914 whole entry): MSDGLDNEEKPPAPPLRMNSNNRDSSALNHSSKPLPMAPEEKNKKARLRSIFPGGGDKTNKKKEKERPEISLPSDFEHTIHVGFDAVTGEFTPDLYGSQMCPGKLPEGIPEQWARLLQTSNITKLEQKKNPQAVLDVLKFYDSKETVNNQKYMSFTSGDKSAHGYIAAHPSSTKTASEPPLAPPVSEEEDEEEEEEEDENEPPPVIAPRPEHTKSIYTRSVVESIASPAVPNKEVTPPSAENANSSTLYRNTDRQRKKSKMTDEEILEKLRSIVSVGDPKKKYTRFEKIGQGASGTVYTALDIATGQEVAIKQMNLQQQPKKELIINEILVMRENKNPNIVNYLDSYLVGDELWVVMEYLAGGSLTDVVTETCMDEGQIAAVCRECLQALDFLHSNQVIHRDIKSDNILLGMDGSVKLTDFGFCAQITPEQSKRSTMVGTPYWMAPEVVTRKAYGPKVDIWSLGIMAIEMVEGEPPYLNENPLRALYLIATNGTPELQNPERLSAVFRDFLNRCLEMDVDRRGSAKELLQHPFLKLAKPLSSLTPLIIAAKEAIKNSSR
Sequence of ZAP70 (P43403 whole entry): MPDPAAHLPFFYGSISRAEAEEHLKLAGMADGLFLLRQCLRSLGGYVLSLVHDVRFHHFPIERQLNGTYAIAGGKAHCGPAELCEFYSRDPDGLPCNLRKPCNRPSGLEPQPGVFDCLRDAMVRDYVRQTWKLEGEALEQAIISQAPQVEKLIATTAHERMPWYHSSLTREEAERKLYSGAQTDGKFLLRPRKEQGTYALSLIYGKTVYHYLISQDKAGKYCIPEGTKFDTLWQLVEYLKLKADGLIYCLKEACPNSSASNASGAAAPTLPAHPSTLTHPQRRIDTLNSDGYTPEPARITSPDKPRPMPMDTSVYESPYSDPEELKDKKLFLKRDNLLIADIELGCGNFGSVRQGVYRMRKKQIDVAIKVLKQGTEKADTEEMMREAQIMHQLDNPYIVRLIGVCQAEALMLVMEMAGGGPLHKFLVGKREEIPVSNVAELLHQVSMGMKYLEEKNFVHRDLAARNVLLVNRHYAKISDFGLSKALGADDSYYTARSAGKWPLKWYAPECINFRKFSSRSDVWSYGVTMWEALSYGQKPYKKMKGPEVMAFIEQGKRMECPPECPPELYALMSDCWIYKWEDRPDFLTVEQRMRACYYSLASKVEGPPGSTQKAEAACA
Sequence of BMPR1A (P36894 whole entry): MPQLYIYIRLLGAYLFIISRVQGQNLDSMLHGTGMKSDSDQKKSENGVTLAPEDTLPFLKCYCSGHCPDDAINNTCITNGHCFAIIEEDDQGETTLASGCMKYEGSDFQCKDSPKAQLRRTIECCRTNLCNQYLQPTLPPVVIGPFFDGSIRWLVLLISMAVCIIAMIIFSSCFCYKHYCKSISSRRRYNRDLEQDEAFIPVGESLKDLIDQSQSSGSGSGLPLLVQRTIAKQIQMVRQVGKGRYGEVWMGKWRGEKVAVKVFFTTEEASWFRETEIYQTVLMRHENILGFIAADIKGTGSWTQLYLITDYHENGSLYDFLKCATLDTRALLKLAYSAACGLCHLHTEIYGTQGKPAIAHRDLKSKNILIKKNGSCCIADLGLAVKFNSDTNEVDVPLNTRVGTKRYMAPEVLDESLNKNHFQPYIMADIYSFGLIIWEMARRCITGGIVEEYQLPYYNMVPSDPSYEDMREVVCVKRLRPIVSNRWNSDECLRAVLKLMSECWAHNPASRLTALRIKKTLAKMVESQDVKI
Sequence of RAF1 (P04049 whole entry): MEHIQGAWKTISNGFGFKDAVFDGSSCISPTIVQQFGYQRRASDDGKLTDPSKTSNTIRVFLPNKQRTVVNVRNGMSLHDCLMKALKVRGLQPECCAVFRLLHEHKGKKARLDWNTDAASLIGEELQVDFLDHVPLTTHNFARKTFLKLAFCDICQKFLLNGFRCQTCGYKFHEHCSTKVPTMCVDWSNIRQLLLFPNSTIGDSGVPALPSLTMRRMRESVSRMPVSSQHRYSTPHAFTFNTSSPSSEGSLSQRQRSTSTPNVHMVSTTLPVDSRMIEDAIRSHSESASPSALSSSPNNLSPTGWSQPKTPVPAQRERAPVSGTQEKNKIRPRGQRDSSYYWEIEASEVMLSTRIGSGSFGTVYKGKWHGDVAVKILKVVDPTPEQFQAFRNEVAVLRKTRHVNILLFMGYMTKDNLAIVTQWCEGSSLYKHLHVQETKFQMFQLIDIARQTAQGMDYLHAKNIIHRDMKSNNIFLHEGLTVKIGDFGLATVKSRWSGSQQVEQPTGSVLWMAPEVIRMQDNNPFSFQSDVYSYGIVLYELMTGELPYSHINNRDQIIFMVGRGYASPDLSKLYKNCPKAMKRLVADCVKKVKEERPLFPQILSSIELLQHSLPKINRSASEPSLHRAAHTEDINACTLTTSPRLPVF
Sequence of EGFR(L747-E749del, A750P) (P00533 with tags, fused parts or gaps DEL747-749/A750P): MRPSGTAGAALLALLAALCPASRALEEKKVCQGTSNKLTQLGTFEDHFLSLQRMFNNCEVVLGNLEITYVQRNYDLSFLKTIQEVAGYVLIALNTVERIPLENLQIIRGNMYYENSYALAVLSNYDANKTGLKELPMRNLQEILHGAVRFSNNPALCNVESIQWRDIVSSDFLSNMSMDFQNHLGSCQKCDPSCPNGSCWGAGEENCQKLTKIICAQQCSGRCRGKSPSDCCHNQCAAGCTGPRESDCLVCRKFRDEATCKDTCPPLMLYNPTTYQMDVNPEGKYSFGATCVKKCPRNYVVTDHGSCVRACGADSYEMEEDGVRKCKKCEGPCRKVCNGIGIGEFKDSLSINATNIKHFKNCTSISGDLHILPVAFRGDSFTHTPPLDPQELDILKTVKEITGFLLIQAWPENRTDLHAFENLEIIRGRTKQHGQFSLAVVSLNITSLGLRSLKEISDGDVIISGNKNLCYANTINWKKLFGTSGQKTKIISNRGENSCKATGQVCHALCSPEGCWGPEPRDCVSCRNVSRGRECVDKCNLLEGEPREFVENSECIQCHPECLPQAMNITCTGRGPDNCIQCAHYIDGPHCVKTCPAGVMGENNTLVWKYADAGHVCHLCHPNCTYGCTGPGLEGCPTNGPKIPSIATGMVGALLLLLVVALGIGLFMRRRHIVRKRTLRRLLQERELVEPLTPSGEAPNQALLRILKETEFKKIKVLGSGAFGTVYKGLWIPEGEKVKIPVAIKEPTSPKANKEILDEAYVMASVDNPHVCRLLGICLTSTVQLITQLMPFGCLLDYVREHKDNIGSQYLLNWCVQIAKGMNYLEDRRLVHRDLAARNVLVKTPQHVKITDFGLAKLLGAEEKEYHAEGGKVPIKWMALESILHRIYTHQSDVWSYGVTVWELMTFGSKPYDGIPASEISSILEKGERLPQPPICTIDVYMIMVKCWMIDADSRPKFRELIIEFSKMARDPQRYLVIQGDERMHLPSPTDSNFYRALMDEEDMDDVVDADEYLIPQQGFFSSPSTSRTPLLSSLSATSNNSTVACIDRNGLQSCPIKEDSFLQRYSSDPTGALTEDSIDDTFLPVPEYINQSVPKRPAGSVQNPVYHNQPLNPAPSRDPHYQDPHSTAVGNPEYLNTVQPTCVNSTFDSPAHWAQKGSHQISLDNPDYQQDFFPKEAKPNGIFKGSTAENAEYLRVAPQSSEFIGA

**Q.** How did the remaining binding at 1 µM [1] turn out when `Cn1c(=O)[nH]c2ccc(-c3cccc(C(=O)NC4CCn5ccnc5C4)c3)cc21` (stereo not shown) [Z36-MP5] was run?
**A.** 40%

**Q.** What about the remaining binding at 1 µM [2] of the same compound?
**A.** 71%

**Q.** And the remaining binding at 1 µM [3]?
**A.** 69%

**Q.** And the remaining binding at 1 µM [4]?
**A.** 52%

**Q.** And the remaining binding at 1 µM [5]?
**A.** 100%

**Q.** What about the remaining binding at 1 µM [6] of the same compound?
**A.** 100%

**Q.** What about the remaining binding at 1 µM [7] of the same compound?
**A.** 91%

**Q.** And the remaining binding at 1 µM [8]?
**A.** 100%

**Q.** What about the remaining binding at 1 µM [9] of the same compound?
**A.** 100%

**Q.** What about the remaining binding at 1 µM [10] of the same compound?
**A.** 83%

**Q.** And the remaining binding at 1 µM [11]?
**A.** 69%

**Q.** What about the remaining binding at 1 µM [12] of the same compound?
**A.** 59%

**Q.** What about the remaining binding at 1 µM [13] of the same compound?
**A.** 55%

**Q.** And the remaining binding at 1 µM [14]?
**A.** 98%

**Q.** And the remaining binding at 1 µM [15]?
**A.** 81%

**Q.** And the remaining binding at 1 µM [16]?
**A.** 92%

**Q.** And the remaining binding at 1 µM [17]?
**A.** 98%

**Q.** And the remaining binding at 1 µM [18]?
**A.** 49%

**Q.** What about the remaining binding at 1 µM [19] of the same compound?
**A.** 39%

**Q.** And the remaining binding at 1 µM [20]?
**A.** 84%

**Q.** And the remaining binding at 1 µM [21]?
**A.** 97%

**Q.** What about the remaining binding at 1 µM [22] of the same compound?
**A.** 57%

**Q.** And the remaining binding at 1 µM [23]?
**A.** 96%

**Q.** And the remaining binding at 1 µM [24]?
**A.** 71%

**Q.** What about the remaining binding at 1 µM [25] of the same compound?
**A.** 90%

Reference: article PMC10924921, “Mi-2β promotes immune evasion in melanoma by activating EZH2 methylation” (Nature Communications, 2024)
